A short description of data set [1]: Assay of plasma and perilymph for lamotrigine (pharmacokinetic evaluation). It counts as in vivo. The settings on record: guinea pig, single oral dose 20 mg/kg; for concentration at 15 h / Tmax / Cmax: male, albino. The method, then:
All solutions were prepared fresh on the day of dosing and stored at 2-8° C., protected from light, between dosing sessions. In order to establish the otoprotective properties of LTG, a pharmacokinetic evaluation study was designed to establish penetration of LTG into guinea pig perilymph and plasma. A total of 17 healthy adult male albino guinea pigs were used. […] Two untreated control animals were also sampled for comparison. […] After the terminal blood sample had been taken, the animal received an overdose of anaesthetic and was decapitated. The bulla was removed and thoroughly cleaned to remove all tissue and fluids. […] Levels of LTG in both plasma and perilymph were determined using a protein precipitation extraction procedure using high performance liquid chromatography (HPLC) with ultraviolet (UV) detection. The LTG retention time was 5.4 minutes and quantification was carried out using peak areas.

The subject of data set [2] is supramaximal electroshock (MES) model. As to conditions: rat; cited from earlier work.
Data set [3] deals with cochlea nerve compound action potential (CAP). Nature of the data set: Otoprotection after acute noise insult: CAP threshold shifts. Type of data set: in vivo, guinea pig. As to conditions: 20 mg/kg about 2 hours before 15 minutes filtered (5-20 KHz) noise; 8, 16, 24 and 30 KHz. The method, then:
Sedation was achieved using an intramuscular injection of 0.5 mL/kg medetomidine followed by an intraperitoneal injection of 6 mL/kg fentanyl approximately 10 minutes later (loss of the pedal reflex was used to determine sufficient sedation for surgery).
The cochlea nerve compound action potential (CAP) was generated in response to discrete acoustic stimuli. It was used to determine both control and treatment related changes in auditory thresholds by measuring changes in CAP latency (milliseconds) and amplitude (μVolts).
Tone ‘pip’ stimuli of 5 millisecond duration were computer generated at 8, 16, 24 and 30 KHz and fed to an attenuator (1 dB resolution). The tone pip was then fed to a Bruel and Kjaer 4192, (microphone) serving as an acoustic driver, which was placed inside an ear speculum coupled to the ear canal. CAP averaging was performed between ×50 to 100 times and the CAP threshold was determined by visual inspection of the recorded time signal. Accuracy was typically between 1-3 dB, using a CAP detection criterion of approximately 1 μV.
Animals were then exposed to 15 minutes filtered (5-20 KHz) free field noise (approximately […]) during which ESAC measurements were made at 5 minute intervals.

Read-outs that look alike come from different tables or passages of the source.

Consider `Nc1nnc(-c2cccc(Cl)c2Cl)c(N)n1` [LTG, 3,5-Diamino-6-(2,3-dichlorophenyl)-1,2,4-triazine], for which the “levels in perilymph relative to plasma” value in data set [1] (timepoints 1-15 hours) is “approximately twice”. Also, the concentration at 15 h in data set [1] (perilymph, read-out: mean perilymph LTG level after the 15 hour sampling period) turned out to be 3200 ng/mL; in data set [1] (plasma, read-out: mean plasma LTG level after the 15 hour sampling period), 1000 ng/mL. In addition, the Tmax was about 2 h in data set [1] (perilymph, read-out: perilymph approximate mean time of maximum concentration (Tmax)) and 1 h in data set [1] (plasma, read-out: plasma Tmax). Further, the Cmax was 6140 ng/mL in data set [1] (perilymph, read-out: perilymph mean maximum concentration (Cmax)) and 3590 ng/mL in data set [1] (plasma, read-out: mean plasma Cmax). Moreover, in data set [2], the “effective oral dose (ED50)” value is 6.8 mg/kg. In data set [3], the “CAP threshold shifts after noise versus noise control” value was “mean thresholds were higher in the LTG treated animals and reached statistical significance at 8 kHz”.

The values are drawn from patent US20040023962A1, “Use of medicaments” (priority 2000, published 2004).
